Source: PubChem BioAssay (NCI)
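Results reflect a 48-hour exposure of cells in 96-well plates to compound at five concentrations. Definition used: TGI = concentration required for complete inhibition of growth.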

Experiments:
Experiment in all cases: growth of human tumour cells (NCI), 48 h
[1] = system: SR leukemia
[2] = system: RPMI-8226 leukemia
[3] = system: SK-OV-3 ovarian
[4] = system: HL-60(TB) leukemia
[5] = system: A498 renal
[6] = system: HOP-62 NSCLC
[7] = system: UACC-62 melanoma
[8] = system: U251 CNS
[9] = system: CAKI-1 renal
[10] = system: KM12 colon
[11] = system: NCI-H460 lung
[12] = system: SNB-19 CNS
[13] = system: UO-31 renal
[14] = system: SN12C renal
[15] = system: HCC-2998 colon
[16] = system: TK-10 renal
[17] = system: OVCAR-4 ovarian
[18] = system: A549 NSCLC
[19] = system: SNB-78 CNS
[20] = system: MOLT-4 leukemia
[21] = system: 786-0 renal
[22] = system: NCI-H23 lung
[23] = system: RXF-631 renal
[24] = system: HCT-116 colon
[25] = system: SF-295 CNS
[26] = system: M14 melanoma
[27] = system: LOX IMVI melanoma
[28] = system: K-562 leukemia
[29] = system: OVCAR-5 ovarian
[30] = system: HT29 colon
[31] = system: HOP-18 NSCLC
[32] = system: M19-MEL melanoma
[33] = system: CCRF-CEM leukemia
[34] = system: SF-539 CNS
[35] = system: DMS 114 small cell lung
[36] = system: SW-620 colon
[37] = system: SK-MEL-5 melanoma
[38] = system: OVCAR-8 ovarian
[39] = system: SK-MEL-28 melanoma
[40] = system: ACHN renal
[41] = system: RXF 393 renal
[42] = system: SNB-75 CNS
[43] = system: SK-MEL-2 melanoma
[44] = system: MALME-3M melanoma
[45] = system: IGROV1 ovarian
[46] = system: KM20L2 colon
[47] = system: DMS 273 small cell lung
[48] = system: SF-268 CNS
[49] = system: HCT-15 colon
[50] = system: DLD-1 colon
[51] = system: UACC-257 melanoma
[52] = system: XF 498 CNS
[53] = system: LXFL 529 NSCLC
[54] = system: EKVX NSCLC

Which results are given for `CC(C)(C)c1cc(Cc2ccc([N+](C)(C)C)cc2)c(O)c(C(C)(C)C)c1`?
TGI [1]: 29.8 µM; TGI [2]: 31.9 µM; TGI [3]: 95.1 µM; TGI [4]: 8.27 µM; TGI [5]: > 100 µM; TGI [6]: 33.5 µM; TGI [7]: 27.9 µM; TGI [8]: 25.4 µM; TGI [9]: > 100 µM; TGI [10]: 29.6 µM; TGI [11]: 37.9 µM; TGI [12]: 25.9 µM; TGI [13]: > 100 µM; TGI [14]: 28.7 µM; TGI [15]: 29.9 µM; TGI [16]: 78.4 µM; TGI [17]: > 100 µM; TGI [18]: > 100 µM; TGI [19]: 31.3 µM; TGI [20]: 26.1 µM; TGI [21]: 57.7 µM; TGI [22]: 36.1 µM; TGI [23]: > 100 µM; TGI [24]: 31.5 µM; TGI [25]: 67.5 µM; TGI [26]: 40.9 µM; TGI [27]: 30.6 µM; TGI [28]: 28.1 µM; TGI [29]: 59.7 µM; TGI [30]: 32.7 µM; TGI [31]: 47.3 µM; TGI [32]: 26.6 µM; TGI [33]: 29.1 µM; TGI [34]: 30.5 µM; TGI [35]: 20.2 µM; TGI [36]: 59.2 µM; TGI [37]: 22.9 µM; TGI [38]: 35.9 µM; TGI [39]: 25 µM; TGI [40]: > 100 µM; TGI [41]: 38.4 µM; TGI [42]: 22.1 µM; TGI [43]: 30.2 µM; TGI [44]: 34.2 µM; TGI [45]: 28.1 µM; TGI [46]: 74.8 µM; TGI [47]: 22.2 µM; TGI [48]: 28.5 µM; TGI [49]: > 100 µM; TGI [50]: > 100 µM; TGI [51]: 31.7 µM; TGI [52]: 25.9 µM; TGI [53]: 27.1 µM; TGI [54]: > 100 µM
